Among the data in PubChem BioAssay AID1508610 (The Scripps Research Institute Molecular Screening Center, 2020) are EC50 values, retold here.

The structures appear in SMILES notation. The source made the active and inactive calls. No rule for the calls is given here.

For the assay, the target named is G-protein coupled receptor 151 (Homo sapiens) (UniProt Q8TDV0). Briefly: GPR151 activator potency, dose response, cell-based (AID 1508610). The note with it: cell-based GPR151 activation reporter.
Sequence of G-protein coupled receptor 151 (Homo sapiens) (Q8TDV0 whole entry, looked up): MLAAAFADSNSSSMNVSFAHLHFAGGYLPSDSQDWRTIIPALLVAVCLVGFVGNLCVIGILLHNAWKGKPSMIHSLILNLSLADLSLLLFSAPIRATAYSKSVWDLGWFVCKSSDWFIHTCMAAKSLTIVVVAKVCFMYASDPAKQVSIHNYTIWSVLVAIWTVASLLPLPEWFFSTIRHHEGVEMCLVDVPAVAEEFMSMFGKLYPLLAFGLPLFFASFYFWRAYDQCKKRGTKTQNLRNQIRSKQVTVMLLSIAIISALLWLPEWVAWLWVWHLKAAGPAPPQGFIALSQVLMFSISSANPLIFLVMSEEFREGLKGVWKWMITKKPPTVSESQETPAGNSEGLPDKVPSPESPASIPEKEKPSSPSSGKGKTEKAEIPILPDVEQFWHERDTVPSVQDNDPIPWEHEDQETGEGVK
In general, EC50 refers to the concentration giving half of the maximal effect. For `CC(C)CC(NC(=O)C(C)NC(=O)CNC(=O)C(NC=O)C(C)C)C(=O)NC(C)C(=O)NC(C(=O)NC(C(=O)NC(C(=O)NC(Cc1c[nH]c2ccccc12)C(=O)NC(CC(C)C)C(=O)NC(Cc1c[nH]c2ccccc12)C(=O)NC(CC(C)C)C(=O)NC(Cc1c[nH]c2ccccc12)C(=O)NC(CC(C)C)C(=O)NC(Cc1c[nH]c2ccccc12)C(=O)NCCO)C(C)C)C(C)C)C(C)C` (stereo unspecified), the half-maximal effective concentration (EC50) was 0.97 µM. For `COc1ccc(CNC(=O)CCCn2cccc2)cc1`, the EC50 was > 28 µM (inactive). As to `O=C(NC1CC1)c1ccc(-c2ccc(N3CCOCC3)nc2)s1`, the EC50 is > 27.6 µM (inactive). The value for `Fc1ccc(-c2cnc(N3CCC4(CC3)OCCO4)nc2)cc1` was > 28 µM (inactive); that for `Cc1nn(C)cc1CN1CCOc2ccc(CN3CCc4ccccc4C3)cc2C1` was > 28 µM (inactive); that for `COc1ccc(S(=O)(=O)Nc2ccc(F)c(F)c2)cc1C` was > 28 µM (inactive). The value for `COc1ccc(-c2nc3ccccc3[nH]2)cc1` was > 35 µM (inactive); that for `COc1ccc(-n2nc3c(c2NC(=O)CCC2CCCC2)CS(=O)(=O)C3)cc1` was > 28.2 µM (inactive); that for `COc1cc(C2NC(=O)NC(C)=C2C(C)=O)cc(Br)c1OCc1ccccc1` (stereo unspecified) was > 28 µM (inactive). Next, `O=C(Nc1ccc(Br)cc1)c1ccc(Br)c(S(=O)(=O)N2CCCCC2)c1`: > 20.9 µM (inactive); `Clc1ccccc1/C=C/c1nc(-c2ccccn2)no1`: > 28 µM (inactive); `N#Cc1sc(NC(=O)c2ccc(F)c(F)c2)nc1Cl`: > 28 µM (inactive). With `Cn1c(N)c(S(=O)(=O)N2CCN(c3ccccc3Cl)CC2)c(=O)n(C)c1=O`, the EC50 is > 28.4 µM (inactive).

With `C/C=C/C(=O)N(CC)c1ccccc1C`, the EC50 is > 28.9 µM (inactive). The value for `COc1ccc(OC)c(C(C)NC(=O)c2ccccc2Cl)c1` (stereo unspecified) was > 28 µM (inactive). Next, `c1ccc2[nH]c(-c3nc4ccccc4o3)nc2c1`: > 28.6 µM (inactive). The value for `CCCCNc1c(N2CCCC(C(=O)OCC)C2)c(=O)c1=O` (stereo unspecified) was > 28 µM (inactive). For the compound `COc1cc(C2Nc3ccccc3NC3=C2C(=O)CC(c2ccc4c(c2)OCO4)C3)ccc1OC(C)=O` (stereo unspecified), the EC50 was > 23.3 µM (inactive). The value for `COc1ccc(-c2ccc(C(=O)NC3CC3)s2)cc1` was > 28 µM (inactive); that for `Cc1ccc(Nc2ncnc3sc(C)c(C)c23)cc1F` was > 31.6 µM (inactive).

As for `OC(c1cccnc1)c1ccc2c(c1)CN(Cc1cccc(Cl)c1)CCO2` (stereo unspecified), the EC50 was > 28 µM (inactive). As for `O=C(Nc1ncc([N+](=O)[O-])s1)c1cccs1`, the EC50 was > 28 µM (inactive).

Turning to `Cn1c(=O)c(=O)n(C)c2cc(S(=O)(=O)N3CCN(C(=O)c4ccco4)CC3)ccc21`, the EC50 was > 28 µM (inactive). Next, `O=C(COc1ccc(Cl)cc1Cl)Nc1ncn[nH]1`: > 28 µM (inactive); `COc1ccc(CCNc2ccnc(Nc3ccc(N4CCOCC4)cc3)n2)cc1`: “inactive”; `CCC(C)c1ccccc1NC(=S)NC(C)=O` (stereo unspecified): > 28 µM (inactive). Next, `O=C(O)c1ccc(-c2nc3ccccc3s2)s1`: > 30 µM (inactive); `Cc1ccc(-c2csc3nnc(SCC(=O)NC(N)=O)n23)cc1`: > 29 µM (inactive); `COc1ccc(C(=O)Nc2noc3ccccc23)cc1`: > 28 µM (inactive). As for `O=C(Nc1nc2ccccc2s1)c1ccccc1F`, the EC50 was > 31.9 µM (inactive). Next, `CCOC(=O)c1sc(NC(=O)c2sccc2C)cc1C`: > 29 µM (inactive).

Regarding `COc1ccc(NC(=O)C2C3CCC(C3=C(C)C)C2C(=O)O)cc1` (stereo unspecified), the EC50 is > 28 µM (inactive). Next, `O=C(Nc1noc2ccccc12)c1ccc(F)cc1`: > 28 µM (inactive); `Cc1ccc(-c2nc(-c3ccccn3)no2)cc1Cl`: > 35 µM (inactive). The value for `Cc1cccc(-c2cnc(C)nc2C2CCCN(C(=O)CN(C)C)C2)c1` (stereo unspecified) was > 28 µM (inactive); that for `CCCOc1ccc(NC(=O)C2CC(=O)N(CC)C(=Nc3ccc(C)c(C)c3)S2)cc1` (stereo unspecified) was > 26.4 µM (inactive); that for `CCN(CC)C(=O)C(=O)c1c(C)n(C)c2ccccc12` was > 28 µM (inactive). Next, `Cc1csc2ncc(C(=O)N3CCc4ccccc43)c(=O)n12`: > 28 µM (inactive). Take `COc1ccc(S(=O)(=O)N(C)C)c(Cl)c1Cl`: the EC50 was > 28 µM (inactive). The value for `O=C(Cc1cn(-c2ccc(Cl)nn2)c2ccccc12)NCCN1CCOCC1` was > 28.1 µM (inactive); that for `CN1CCN(c2ccc(/C=C(\C#N)C(N)=O)cc2[N+](=O)[O-])CC1` was > 28 µM (inactive); that for `CCC[n+]1c(/C=C2\Sc3ccccc3N2CC)ccc2ccccc21` was > 24.5 µM (inactive). Next, `CC(C)(C)OC(=O)NNC(=O)/C=C/c1cc(Br)ccc1F`: > 28.1 µM (inactive); `COc1ccc(Cn2nccc2N)cc1OC`: > 28.8 µM (inactive); `CC1CC(=O)N(C)c2ccccc2S1` (stereo unspecified): > 28 µM (inactive). Turning to `O=C(Cn1[nH]c(=O)c2ccccc2c1=O)Nc1cccnc1`, the EC50 is 0.00579 µM. Next, `O=C(O)c1cccc(COc2ccc3ccccc3c2)c1`: > 28 µM (inactive); `Cn1c(=O)c2c(SCCC3OCCO3)nc(C3CCCCC3)nc2n(C)c1=O`: > 27.6 µM (inactive); `COc1ccc(C2C=C(c3ccc(Cl)cc3)Nc3nc(CCCO)nn32)cc1` (stereo unspecified): “inactive”. Turning to `O=C(O)c1cc(N=Cc2ccco2)ccc1O`, the EC50 was > 28 µM (inactive). Next, `O=C(NCc1ccc(Cl)cc1)C1C2C=CC3(CN(Cc4ccccc4)C(=O)C13)O2` (stereo unspecified): > 25.1 µM (inactive). Next, `CN(C)c1cccc2c(S(=O)(=O)Nc3nccnc3-c3ccc(C=O)cc3)cccc12`: > 28 µM (inactive). Next, `O=c1c2ccccc2cnn1-c1nc2ccccc2[nH]1`: > 29.9 µM (inactive); `COc1cc(C2CC(=O)c3c([nH]c(C(=O)OCCSC)c3C)C2)cc(OC)c1OC` (stereo unspecified): 0.0014 µM; `CCC(=O)Oc1ccc2cc(-c3ccc(OC)c(OC)c3)c(=O)oc2c1`: > 28.5 µM (inactive). On to `N#Cc1ccsc1NC(=O)/C=C/c1ccccc1`, for which the EC50 was > 28.6 µM (inactive). Next, `Nc1ncc(Br)cc1S(=O)(=O)N1CCN(C2CCCCC2)CC1`: > 28 µM (inactive); `Cc1cc(Br)ccc1Nc1nc(-c2ccccc2F)nc2ccccc12`: > 23.5 µM (inactive). The value for `O=C(Nc1ccc(Br)cn1)c1ccc(N2CCCCC2)c([N+](=O)[O-])c1` was > 28 µM (inactive). The value for `CC[C@@H](C(=O)C(C)[C@@H](O)[C@H](C)CCc1ccc(C)c(O)c1C(=O)O)C1OC(CC)(C2CC[C@](O)(CC)[C@H](C)O2)C[C@@H]1C` (stereo partly specified) was “inactive”; that for `COc1ccc(-c2nc(C(=O)N3CCN(C)CC3)sc2-c2ccc(OC)cc2)cc1` was > 11.2 µM (inactive).

For `Cn1c(=O)c2c(nc(NCCO)n2Cc2ccccc2F)n(C)c1=O`, the EC50 was > 34.4 µM (inactive).

`CCC(C)NC(=O)c1cc(=O)[nH]c2ccc(Br)cc12` (stereo unspecified): the EC50 is 0.867 µM.

For `CCOC(=O)c1ccc(NC(=O)CSc2cn(Cc3ccccc3Cl)c3ccccc23)cc1`, the EC50 was > 24.2 µM (inactive). The value for `O=C(O)c1ccc(COc2cccc(CO)c2)cc1` was > 28 µM (inactive). In the case of `COc1ccccc1OCCCN1C(=O)C(=O)c2cc(Br)cc(C)c21`, the EC50 is > 28 µM (inactive).

As for `Cc1nccc2[nH]c(=O)c(C(=O)NC3CCN(Cc4ccccc4)CC3)cc12`, the EC50 was > 28 µM (inactive). The value for `CCSCCOC(=O)C1=C(C)NC(=O)NC1c1ccc(OC(F)(F)F)cc1` (stereo unspecified) was > 22.5 µM (inactive). Next, `CCOc1ccc(NS(=O)(=O)c2ccc3c(c2)n(C)c(=O)n3C)cc1`: > 28 µM (inactive); `CCC1CN(CCNC(=O)CC2CCCC2)Cc2cc(OC)ccc2O1` (stereo unspecified): > 28 µM (inactive). With `Cc1ccc(-c2nc(-c3ccccn3)no2)cc1`, the EC50 is > 31.3 µM (inactive). Next, `C=CCN1C(=O)/C(=C/c2ccc(OCC(=O)O)cc2)S/C1=N/c1nccs1`: > 28 µM (inactive); `N#C/C(=C\c1c(Oc2ccc(Cl)cc2Cl)nc2ccccn2c1=O)C(N)=O`: > 27.9 µM (inactive); `CCOC(=O)COc1ccc2c(=O)c(Oc3cccc(OC)c3)coc2c1`: > 28 µM (inactive). The value for `Cc1ccc(NC(=O)/C(C#N)=C\c2ccccc2O)cc1C` was > 28 µM (inactive); that for `CN1CCN(c2ccc(-c3ccc(C(=O)NCCOc4ccccc4)s3)cc2)CC1` was > 27.7 µM (inactive). Next, `O=C(NCCO)c1ccc2nc(-c3csc4ccccc34)sc2c1`: > 28.1 µM (inactive); `CCOc1ccc(-n2c(SCC(=O)Nc3ccccc3CC)nc3n[nH]c(C)c3c2=N)cc1`: > 27.1 µM (inactive). For `Cc1cc2nc3c(=O)n(C4CCCCCC4)c(=O)[nH]c3nc2cc1N`, the EC50 was > 28 µM (inactive). Next, `[O-]/[N+](=C\c1ccncc1)c1ccc(Cl)cc1`: > 28.9 µM (inactive). Next, `CC[C@@H](C(=O)[C@@H](C)[C@@H](O)[C@H](C)CCc1ccc(C)c(O)c1C(=O)O)[C@H]1O[C@](CC)([C@H]2CC[C@](O)(CC)[C@H](C)O2)C[C@@H]1C`: > 28 µM (inactive); `CCOC(=O)c1c(NC(=O)CN2CC(C)OC(C)C2)sc(C)c1C` (stereo unspecified): > 31.3 µM (inactive). As for `CC(=O)c1cccc(NC(=O)CC2S\C(=N/N=C/C=C/c3ccccc3)NC2=O)c1` (stereo unspecified), the EC50 was > 28 µM (inactive).

For the compound `CC1(C)Cc2cccc(OCC(=O)NC3=NCCS3)c2O1`, the EC50 is > 29.3 µM (inactive). The value for `NN1C(=O)c2ccccc2NC1C1CC=CCC1` (stereo unspecified) was > 28 µM (inactive); that for `Cc1ccc(Oc2nc3ccccn3c(=O)c2/C=C(\C#N)C(N)=O)c(C)c1` was > 28 µM (inactive).
